Data reported in the NIST ThermoML archive (doi:10.1021/je900596d).
± gives the expanded uncertainty stated by the source.

Details: 323.37 K, Liquid, Vibrating tube method

FC(F)=C(F)C(F)(F)F [hexafluoropropene]
Details	mass density [kg/m3]
1440.4 kPa	1174.76 ± 1.2
1445.7 kPa	1175 ± 1.2
1451.5 kPa	1175.02 ± 1.2
1457.1 kPa	1175.21 ± 1.2
1466.8 kPa	1175.47 ± 1.2
1497.2 kPa	1176.12 ± 1.2
1510 kPa	1176.43 ± 1.2
1522.1 kPa	1176.69 ± 1.2
1537.1 kPa	1176.99 ± 1.2
1549.7 kPa	1177.31 ± 1.2
1563.1 kPa	1177.61 ± 1.2
1577.9 kPa	1178.01 ± 1.2
1593 kPa	1178.25 ± 1.2
1606 kPa	1178.65 ± 1.2
1618.2 kPa	1178.79 ± 1.2
1633 kPa	1179.18 ± 1.2
1650.5 kPa	1179.47 ± 1.2
1665.3 kPa	1179.86 ± 1.2
1679.6 kPa	1180.16 ± 1.2
1693.1 kPa	1180.45 ± 1.2
1699.6 kPa	1180.56 ± 1.2
1718.6 kPa	1180.95 ± 1.2
1737.4 kPa	1181.34 ± 1.2
1760 kPa	1181.89 ± 1.2
1778.2 kPa	1182.25 ± 1.2
1797.3 kPa	1182.59 ± 1.2
1819.1 kPa	1183.13 ± 1.2
1845.8 kPa	1183.69 ± 1.2
1870.4 kPa	1184.11 ± 1.2
1897.4 kPa	1184.74 ± 1.2
1924.8 kPa	1185.37 ± 1.2
1943.5 kPa	1185.64 ± 1.2
1970 kPa	1186.24 ± 1.2
1988.8 kPa	1186.54 ± 1.2
2013.8 kPa	1187.15 ± 1.2
2040.4 kPa	1187.71 ± 1.2
2074.7 kPa	1188.33 ± 1.2
2102.6 kPa	1188.84 ± 1.3
2129.9 kPa	1189.44 ± 1.3
2157.7 kPa	1190.03 ± 1.3
2186.2 kPa	1190.47 ± 1.3
2213.3 kPa	1191.16 ± 1.2
2277.1 kPa	1192.28 ± 1.2
2311.9 kPa	1192.94 ± 1.3
2338 kPa	1193.41 ± 1.2
2366.9 kPa	1194 ± 1.2
2396.7 kPa	1194.59 ± 1.2
2428 kPa	1195.18 ± 1.2
2456.3 kPa	1195.7 ± 1.2
2482.6 kPa	1196.22 ± 1.2
2511.2 kPa	1196.77 ± 1.2
2547.6 kPa	1197.4 ± 1.2
2588.4 kPa	1198.21 ± 1.2
2628 kPa	1198.83 ± 1.2
2671.3 kPa	1199.65 ± 1.2
2714.7 kPa	1200.41 ± 1.2
2754.7 kPa	1201.07 ± 1.2
2795.1 kPa	1201.67 ± 1.2
2833.2 kPa	1202.46 ± 1.2
2876 kPa	1203.06 ± 1.2
2913.9 kPa	1203.87 ± 1.2
2953 kPa	1204.53 ± 1.2
2989.2 kPa	1205.13 ± 1.2
3027.6 kPa	1205.88 ± 1.2
3069.8 kPa	1206.59 ± 1.2
3107.8 kPa	1207.26 ± 1.2
3148.5 kPa	1207.95 ± 1.2
